In patent publication US9561231B2 (AbbVie Inc., priority 2012, dated 2017):

How the values were obtained:
[1] = target: T1, second (BD2: amino acids E352-E168) bromodomain of BRD4 (Homo sapiens, UniProt O60885); test: TR-FRET bromodomain binding assay, BRD4 BD2; details: TR-FRET assay protocol (A-G, compound concentration range); Ki calculated from IC50, probe Kd and probe concentration; read-out: TR-FRET Binding Ki: BRD4 (BDII_E352-M457)
T1 construct: protocol
Protocol: (§1) A time-resolved fluorescence resonance energy transfer (TR-FRET) assay was used to determine the affinities of compounds of the Examples listed in Table 1 for each bromodomain of BRD4. His-tagged first (BD1: amino acids K57-E168) and second (BD2: amino acids E352-E168) bromodomains of BRD4 were expressed and purified. An Alexa647-labeled BET-inhibitor was used as the fluorescent probe in the assay.
(§2) Compound dilution series were prepared in DMSO via an approximately 3-fold serial dilution from one of the following:
(§3) or 5-fold serial dilution from one of the following:
(§4) Assay method A: 2.5 mM-800 nM
(§5) For Assay methods A, C, D, and F: Compounds were then diluted 6:100 in assay buffer (20 mM Sodium Phosphate, pH 6.0, 50 mM NaCl, 1 mM Ethylenediaminetetraacetic acid, 0.01% Triton X-100, 1 mM DL-Dithiothreitol) to yield 3× working solutions. […] of this solution were added to the assay plate to reach a final volume of 18 μL.
(§6) TR-FRET data were normalized to the means of 24 no-compound controls (“high”) and 8 controls containing 1 μM un-labeled probe (“low”). Percent inhibition was plotted as a function of compound concentration and the data were fit with the 4 parameter logistic equation to obtain IC50s. Inhibition constants (Ki) were calculated from the IC50s, probe Kd and probe concentration. Typical Z′ values were between 0.65 and 0.75.

[2] = target: T2, first (BD1: amino acids K57-E168) bromodomain of BRD4 (Homo sapiens, UniProt O60885); test: TR-FRET bromodomain binding assay, BRD4 BD1; details: TR-FRET assay protocol (A-G, compound concentration range); Ki calculated from IC50, probe Kd and probe concentration; read-out: TR-FRET Binding Ki: BRD4 (BDI_K57-E168)
T2 construct: His-tagged first (BD1: amino acids K57-E168)
Protocol: as §1, §2, §3, §4, §5, §6

Row | SMILES | Ki [1] [µM] | Ki [2] [µM]
1 | COC(=O)c1ccccc1-c1cc(=O)n(C)nc1-c1ccccc1Oc1ccccc1 [Example 126, methyl 2-[1-methyl-6-oxo-3-(2-phenoxyphenyl)-1,6-dihydropyridazin-4-yl]benzoate] | > 22.2 | 9.34
2 | CNC(=O)c1cccc(-c2cc(=O)n(C)nc2-c2ccccc2Oc2ccccc2)c1 [Example 128, N-methyl-3-[1-methyl-6-oxo-3-(2-phenoxyphenyl)-1,6-dihydropyridazin-4-yl]benzamide] | 0.376 | 1.64
3 | CC(C)CCn1cc(-c2cc(=O)n(C)nc2-c2ccccc2Oc2ccccc2)cn1 [Example 129, 2-methyl-5-[1-(3-methylbutyl)-1H-pyrazol-4-yl]-6-(2-phenoxyphenyl)pyridazin-3(2H)-one] | 0.264 | 0.52
4 | Cn1nc(-c2ccccc2Oc2ccccc2)c(-c2ccc3c(c2)OCCO3)cc1=O [Example 133, 5-(2,3-dihydro-1,4-benzodioxin-6-yl)-2-methyl-6-(2-phenoxyphenyl)pyridazin-3(2H)-one] | 0.159 | 0.782
5 | COC(C)c1cccc(-c2cc(=O)n(C)nc2-c2ccccc2Oc2ccccc2)c1 (centres unmarked) [Example 134, 5-[3-(1-methoxyethyl)phenyl]-2-methyl-6-(2-phenoxyphenyl)pyridazin-3(2H)-one] | 4.06 | 4.32
6 | COC(C)c1ccc(-c2cc(=O)n(C)nc2-c2ccccc2Oc2ccccc2)cc1 (centres unmarked) [Example 135, 5-[4-(1-methoxyethyl)phenyl]-2-methyl-6-(2-phenoxyphenyl)pyridazin-3(2H)-one] | 0.411 | 0.604
7 | Cn1nc(-c2ccccc2Oc2ccccc2)c(-c2cncc(NCc3ccccc3)c2)cc1=O [Example 138, 5-[5-(benzylamino)pyridin-3-yl]-2-methyl-6-(2-phenoxyphenyl)pyridazin-3(2H)-one] | 3.18 | 7.43
8 | Cn1nc(-c2ccccc2Oc2ccccc2)c(-c2cccc(N3CCOCC3)c2)cc1=O [Example 139, 2-methyl-5-[3-(morpholin-4-yl)phenyl]-6-(2-phenoxyphenyl)pyridazin-3(2H)-one] | 0.879 | > 1.52
9 | Cn1nc(-c2ccccc2Oc2ccccc2)c(-c2cccc(CN3CCOCC3)c2)cc1=O [Example 141, 2-methyl-5-[3-(morpholin-4-ylmethyl)phenyl]-6-(2-phenoxyphenyl)pyridazin-3(2H)-one] | 0.297 | 0.526
10 | Cn1nc(-c2ccccc2Oc2ccccc2)c(-c2cccc(C(=O)N3CCSCC3)c2)cc1=O [Example 142, 2-methyl-6-(2-phenoxyphenyl)-5-[3-(thiomorpholin-4-ylcarbonyl)phenyl]pyridazin-3(2H)-one] | 1.73 | 2.4
11 | Cn1nc(-c2ccccc2Oc2ccccc2)c(-c2cncc(NC3CCCC3)c2)cc1=O [Example 143, 5-[5-(cyclopentylamino)pyridin-3-yl]-2-methyl-6-(2-phenoxyphenyl)pyridazin-3(2H)-one] | 5.47 | 3.2
12 | Cn1nc(-c2ccccc2Oc2ccccc2)c(-c2cncc(C(=O)NC3CC3)c2)cc1=O [Example 144, N-cyclopropyl-5-[1-methyl-6-oxo-3-(2-phenoxyphenyl)-1,6-dihydropyridazin-4-yl]pyridine-3-carboxamide] | > 3.37 | > 2.38
13 | Cn1nc(-c2ccccc2Oc2ccccc2)c(-c2cncc(C(=O)NC3CCCC3)c2)cc1=O [Example 145, N-cyclopentyl-5-[1-methyl-6-oxo-3-(2-phenoxyphenyl)-1,6-dihydropyridazin-4-yl]pyridine-3-carboxamide] | 10.2 | > 13
14 | Cn1nc(-c2ccccc2Oc2ccccc2)c(-c2ccc(C(=O)N3CCOCC3)cc2)cc1=O [Example 147, 2-methyl-5-[4-(morpholin-4-ylcarbonyl)phenyl]-6-(2-phenoxyphenyl)pyridazin-3(2H)-one] | 0.168 | 0.26
15 | CN(C)C(=O)c1cc(F)cc(-c2cc(=O)n(C)nc2-c2ccccc2Oc2ccccc2)c1 [Example 152, 3-fluoro-N,N-dimethyl-5-[1-methyl-6-oxo-3-(2-phenoxyphenyl)-1,6-dihydropyridazin-4-yl]benzamide] | 7.27 | 6.62
16 | Cn1nc(-c2ccccc2Oc2ccccc2)c(-c2ccnc(N3CCOCC3)c2)cc1=O [Example 153, 2-methyl-5-[2-(morpholin-4-yl)pyridin-4-yl]-6-(2-phenoxyphenyl)pyridazin-3(2H)-one] | 3.09 | 5.96
17 | CN(C)C(=O)c1cc(-c2cc(=O)n(C)nc2-c2ccccc2Oc2ccccc2)ccc1F [Example 155, 2-fluoro-N,N-dimethyl-5-[1-methyl-6-oxo-3-(2-phenoxyphenyl)-1,6-dihydropyridazin-4-yl]benzamide] | 6.9 | 5.52
18 | Cn1nc(-c2ccccc2Oc2ccccc2)c(-c2cccc(S(=O)(=O)N3CCCC3)c2)cc1=O [Example 156, 2-methyl-6-(2-phenoxyphenyl)-5-[3-(pyrrolidin-1-ylsulfonyl)phenyl]pyridazin-3(2H)-one] | 13.1 | > 13
19 | Cn1nc(-c2ccccc2Oc2ccccc2)c(-c2cccc(C(=O)N3CCCCC3)c2)cc1=O [Example 157, 2-methyl-6-(2-phenoxyphenyl)-5-[3-(piperidin-1-ylcarbonyl)phenyl]pyridazin-3(2H)-one] | 4.75 | 5.51

Results, then the compound that gave them:

Row | Ki [1] [µM] | Ki [2] [µM] | SMILES
20 | 17.1 | > 13 | CC(C)Oc1ncccc1-c1cc(=O)n(C)nc1-c1ccccc1Oc1ccccc1 [Example 130, 2-methyl-6-(2-phenoxyphenyl)-5-[2-(propan-2-yloxy)pyridin-3-yl]pyridazin-3(2H)-one]
21 | 0.41 | 6.39 | Cn1nc(-c2ccccc2Oc2ccccc2)c(-c2ccc3scnc3c2)cc1=O [Example 131, 5-(1,3-benzothiazol-5-yl)-2-methyl-6-(2-phenoxyphenyl)pyridazin-3(2H)-one]
22 | 8.05 | > 13 | CC(=O)c1ccc(F)c(-c2cc(=O)n(C)nc2-c2ccccc2Oc2ccccc2)c1 [Example 132, 5-(5-acetyl-2-fluorophenyl)-2-methyl-6-(2-phenoxyphenyl)pyridazin-3(2H)-one]
23 | 6.7 | 4.33 | CCOc1cccc(-c2cc(=O)n(C)nc2-c2ccccc2Oc2ccccc2)c1F [Example 136, 5-(3-ethoxy-2-fluorophenyl)-2-methyl-6-(2-phenoxyphenyl)pyridazin-3(2H)-one]
24 | 1.17 | 3.26 | Cn1nc(-c2ccccc2Oc2ccccc2)c(-c2ccc3nsnc3c2)cc1=O [Example 137, 5-(2,1,3-benzothiadiazol-5-yl)-2-methyl-6-(2-phenoxyphenyl)pyridazin-3(2H)-one]
25 | 8.21 | > 13 | Cn1nc(-c2ccccc2Oc2ccccc2)c(-c2ccc(OCC(F)(F)F)nc2)cc1=O [Example 140, 2-methyl-6-(2-phenoxyphenyl)-5-[6-(2,2,2-trifluoroethoxy)pyridin-3-yl]pyridazin-3(2H)-one]
26 | 12.2 | > 13 | CCN(CC)S(=O)(=O)c1cccc(-c2cc(=O)n(C)nc2-c2ccccc2Oc2ccccc2)c1 [Example 146, N,N-diethyl-3-[1-methyl-6-oxo-3-(2-phenoxyphenyl)-1,6-dihydropyridazin-4-yl]benzenesulfonamide]
27 | 19.7 | > 13 | CN(C(=O)c1cccc(-c2cc(=O)n(C)nc2-c2ccccc2Oc2ccccc2)c1)C1CCCCC1 [Example 148, N-cyclohexyl-N-methyl-3-[1-methyl-6-oxo-3-(2-phenoxyphenyl)-1,6-dihydropyridazin-4-yl]benzamide]
28 | 0.411 | 0.471 | CN(C)CCCNC(=O)c1ccc(-c2cc(=O)n(C)nc2-c2ccccc2Oc2ccccc2)cc1 [Example 150, N-[3-(dimethylamino)propyl]-4-[1-methyl-6-oxo-3-(2-phenoxyphenyl)-1,6-dihydropyridazin-4-yl]benzamide]
29 | 0.258 | 0.4 | Cn1nc(-c2ccccc2Oc2ccccc2)c(-c2ccc(N3CCNCC3)nc2)cc1=O [Example 151, 2-methyl-6-(2-phenoxyphenyl)-5-[6-(piperazin-1-yl)pyridin-3-yl]pyridazin-3(2H)-one]
30 | 5.94 | 11.9 | CC1CCN(C(=O)c2cccc(-c3cc(=O)n(C)nc3-c3ccccc3Oc3ccccc3)c2)CC1 [Example 154, 2-methyl-5-{3-[(4-methylpiperidin-1-yl)carbonyl]phenyl}-6-(2-phenoxyphenyl)pyridazin-3(2H)-one]
31 | 0.529 | 0.604 | CCN(CC)C(=O)c1ccc(-c2cc(=O)n(C)nc2-c2ccccc2Oc2ccccc2)cc1 [Example 158, N,N-diethyl-4-[1-methyl-6-oxo-3-(2-phenoxyphenyl)-1,6-dihydropyridazin-4-yl]benzamide]
